Test results reported in publication PMC8456496 (2021).
Blank lines part the entries; values can stand above or below the molecule they belong to.

What was measured:
Experiment in all cases: fluorescence light-switch
[1] = tested on: poly AT (DNA, duplex) ATATATATATATATATATAT; details: 50 mM NaCl, 10 μM complex, 50 μM bp DNA
[2] = tested on: poly A poly T (DNA, duplex) AAAAAAAAAAAAAAAAAAAAA/TTTTTTTTTTTTTTTTTTTTT; details: 50 mM NaCl; 5 mM Tris-HCl pH 7.0, 1% DMSO, RT; 10 μM complex, 50 μM bp DNA; emission near 600 nm
[3] = tested on: poly T (DNA, single strand) TTTTTTTTTTTTTTTTTTTTT; details: 50 mM NaCl; 5 mM Tris-HCl pH 7.0, 1% DMSO, RT; 10 μM complex, 50 μM DNA; emission near 600 nm

binding ([1]; 5 mM Tris-HCl pH 7.0, 1% DMSO, RT, excimer emission at 599 nm): yes
binding [2]: yes
binding [3]: yes
Compound: CN(C)Cc1[c-]cccc1.[Pt+2].c1ccc2cc3nc4c5cccnc5c5ncccc5c4nc3cc2c1

binding ([1]; 5 mM Tris-HCl pH 7.0, RT, emission at 431 nm): yes
Compound: CN(C)Cc1[c-]cccc1.[Pt+2].c1ccc2nc3c4cccnc4c4ncccc4c3nc2c1

binding ([1]; 5 mM Tris-HCl pH 7.0, RT, emission at 438 nm): yes
Compound: CN(C)Cc1[c-]cccc1.[Pt+2].c1cnc2c(c1)c1nccnc1c1cccnc12
